Reference: patent US8048918B2, “Treatment of hyperproliferative diseases” (Vampex Limited, priority 2000, dated 2011)
Entries after “also recorded” stand apart in the source; their conditions may differ. Where no end group is shown, it is not given here.

Legend:
[1] = system: hyperproliferative psoriatic keratinocytes; experiment: proliferation assay (Coulter cell counter) on hyperproliferative psoriatic keratinocytes; type: cell-based, human
Description: Biopsy samples are obtained from psoriatic patients. Skin from patients with chronic plaque psoriasis are obtained with informed consent. Ethical approval has been obtained previously from The South Sheffield Regional Ethics Committee. Biopsies are all be taken from the lower back in psoriasis patients aged 40 to 60.
Remove subcutaneous tissue and some of the dermis with scissors, dissect skin into 1×2 cm pieces with a scalpel. Rinse the tissue 2-5 times in PBSA. Float skin samples on 0.6% Trypsin in PBSA (pH 7.4) ON at 4° C. (or alternatively for 20-30 min at 37° C.)
The separation of the epidermis is carefully monitored. When the first detachment of the epidermis is visible at the cut edges of the skin sample place the pieces (dermis-side down) in 100 mm Petri dishes. Irrigate with 5 ml of complete culture medium (incl. serum). Peel off the epidermis with forceps and collect it in a 50 ml centrifuge tube containing 20 ml of complete culture medium (KGM). Separate the keratinocytes from the epidermal cells by gently pipetting and sieving through a nylon gauze of 100 μm mesh. Wash the isolated epidermal cells twice in KGM by centrifugation at 100 g for 10 min, and count the total number of cells.
Cells are seeded at 37° C. in KGM medium at a density of 2500 cells/cm^2 in a 25 cm^2 cell culture flask. The medium is replaced every 48 hours and cells are passaged when confluent.
Cell Seeding and Analysis: Purchased secondary cultures or primary cultures (from donor skin) are seeded at 3500 cells/cm^2 in K-SFM 25 cm^2 tissue culture flasks. The medium is changed (5 ml per flask) the day after seeding and every other day thereafter. At 70-80% confluence the cells are subcultured by seeding 3500 cells per well in 24 well cell culture plates, each well containing 500 μl of K-SFM. One well plate is seeded for each treatment. After allowing one day for settling the cells are switched to experimental medium (500 μl per well). Stock solutions of additions are as before. Experimental treatments are as follows:
The medium is replaced every other day. Cells are harvested by trypsinisation. 500 μl Trypsin/EDTA is added to each well to be harvested and then aspirated off. The well plates are incubated for 5-6 min at 37° C. 500 μl PBS is added to the wells and the cells are resuspended. The cell suspension is added to 20 ml Isoton solution in a Coulter counter “Accuvette” and the cells are counted. On each harvest, 3 wells of cells are counted for each treatment and 3 counts were made for each well.
Cell number is calculated as follows: Coulter Counter removes 500 μl of 20 ml sample ( 1/40). Multiply cell count by 40 to obtain cell number in cup, this equals the total number of cells in one well (approximately, as ˜10% taken out for viability test). […]

[2] = system: hyperproliferative psoriatic keratinocytes; experiment: differentiation assay (K1/K10 mRNA, Northern blot / RT-PCR) on hyperproliferative psoriatic keratinocytes; type: cell-based, human
Protocol: RNA extraction is carried out according to the manufacturers instructions using the RNeasy kit (QIAGEN). 20 μg of RNA for each treatment was separated on a 1.2% agarose (1.8% formaldehyde) gel and transferred onto a nylon membrane (Zeta probe GT membranes, BioRad) by capillary transfer. The RNA is fixed to the membrane by UV crosslinking. DNA probes for the differentiation markers K1 and K10(50 ng) are labelled with [α-^32P] dCTP using the Prime-It RmT Primer labeling kit (Stratagene) following the manufacturer's instructions. Unincorporated nucleotides are removed by elution through a Microspin G25 column (Pharmacia Biotech). The blots are wetted in 0.25M sodium phosphate (pH 7.2)/7% SDS for 30 minutes at 65° C. Fresh hybridisation solution is added along with the radiolabelled probe and the blot is hybridised overnight at 65° C.
The blot is washed for 2×5 minutes in 0.25M sodium phosphate (pH 7.2), 7% SDS and then for 2×5 minutes in 20 mM sodium phosphate (pH 7.2), 5% SDS at 65° C. The wash steps are repeated until a clear distinction can be made between the signal and non-specific background. The blot is exposed to x-ray film for 24 hours before developing.
Synthesis of mRNA for the K1 and K10 keratin (markers for commitment to terminal differentiation) is examined by quantitative reverse transcription PCR (RT-PCR). Synthesis of mRNA for Cyclin D (a marker for cell proliferation) is also assayed by RT-PCR. Standard protocol for RT-PCR is followed as recommended by the manufacturer of the PCR machine (PE 2400) using 1 μg RNA from each keratinocyte culture. Suitable primers for RT-PCR are designed based on the human sequences of K1 and K10 deposited in GenBank. Northern blots are also performed: cells are harvested, RNA extracted and 20 μg RNA loaded into each well of a formaldehyde/agarose gel. The RNA is blotted onto a nylon membrane by capillary transfer and expression of K1 mRNA is determined by Northern hybridisation with a radiolabelled DNA probe.
Next, hyperproliferative epidermal keratinocytes are obtained, isolated and cultured as described above in Example 3. Hyperproliferative psoriatic keratinocytes are cultured as described above in serum-free medium with or without the addition of […] human retinol binding protein. At confluence the cells are treated (see Table 3 below) for 96 hours with peptides to 6 μM (medium replaced after 48 hours). Treatments shown in the Table 3 are for duplicate T-25 flasks (2×7 ml for each treatment).
The final concentrations are: Ca^2+ 1.2 mM, RBP 0.6 μM, peptides 6 μM.
Expression of K1 and K10 markers is determined as described above in Example 4. […]
Synthesis of mRNA for markers of proliferation and differentiation is also examined by semi-quantitative reverse transcription PCR (RT-PCR). […]

COS-1 cells = experiment: proliferation assay of COS-1 cells (Coulter counter); type: cell-based; details: P142 1 mg/ml, peptides 6 μM; 24 and 48 hours after treatment; FIG. 7
Protocol: (§1) […] (COS1 and COS7) are purchased from the European Cell Culture Collection, thawed and propagated according to the instructions from the supplier; cells are cultured essentially in the same manner as for normal human keratinocytes (Example 3 above), except that cells are seeded at 20 000 cells/cm^2, with only one treatment with antibody P142, control immunoglobulin, peptide 589, peptide 592 or control peptide 24 hrs after seeding.
(§2) Proliferation is assayed by counting cells in a Coulter counter, as described above.

COS-7 cells = experiment: proliferation assay of COS-7 cells (Coulter counter); type: cell-based; details: P142 1 mg/ml, peptides 6 μM; 24 and 48 hours after treatment; FIG. 8
Protocol: as §1, §2

[3] = system: human dermal fibroblast cells; experiment: proliferation assay of human dermal fibroblast cells; type: cell-based; details: P142 1 mg/ml, peptides 6 μM; 24 hours and 4 days after treatment; FIG. 9
Protocol: Fibroblast cell culture is performed essentially as described for culture of hyperproliferative psoriatic keratinocytes (Example 3), except that following irrigation with complete culture medium, the dermal portion is incubated with 1 mg/ml of collagenase (Sigma) in 20 ml DMEM in a 50 ml centrifuge tube for 16 hours at 37° C. Then 20 ml DMEM containing 5% foetal calf serum and 1% antibiotic/antimycotic solution (Gibco) is added and the cells seeded at 37° C. in DMEM medium+additions at a density of 2500 cells/cm^2 in a 25 cm^2 cell culture flask. Medium is replaced every 48 hours and cells passaged when confluent.
Fibroblast cell culture and experiments are performed essentially as described for culture of hyperproliferative psoriatic keratinocytes (above), except that following irrigation with complete culture medium, the dermal portion is processed further. Reference is made to fibroblast culture protocols set out above.
Proliferation of cells is assayed by direct cell counting essentially as for determination of proliferation in keratinocyte cell cultures. RDH, ADH, RalDH inhibitors are found to reduce proliferation.

[4] = peptides 6 μM, Ca2+ 1.2 mM, RBP 0.6 μM

## CC1=C(/C=C/C(C)=C/C=C/C(C)=C/CO)C(C)(C)CCC1 [retinol, (2E,4E,6E,8E)-3,7-dimethyl-9-(2,6,6-trimethylcyclohex-1-en-1-yl)nona-2,4,6,8-tetraen-1-ol, reference compound]
[1]; 1.2 mM Ca2+, 2 μM ROL, FIG. 10
  keratinocyte proliferation on addition of retinol or retinoic acid: induced
[2]; under differentiation pressure from 1.2 mM calcium
  effect of RBP or ROL on differentiation: inhibition of differentiation

## MKYWGVASFLQKGND [Peptide 592]
[1]; [4]
  effect on RBP-increased proliferation: reversed
[2]; [4]
  differentiation (expression of K1 and K10 markers): reversed; also recorded: same effect
COS-1 cells
  proliferation of Cos-1 cells (cell numbers): marked reduction in proliferation
COS-7 cells
  proliferation of Cos-7 cells (cell numbers): marked reduction in proliferation
[3]
  fibroblast proliferation (cell numbers): greater reduction in proliferation
